# pIC50: −log10 of the molar value.
# Tests used:
# [1] = test system: Trypanosoma brucei brucei; experiment: Antitrypanosomal activity against Trypanosoma brucei brucei assessed as trypanosome lysis using recombinant APOL1 protein G1 variant and measured by Alamar blue based fluoresence assay; type: functional, organism-based
# Apolipoprotein L1 = Apolipoprotein L1 (Homo sapiens, UniProt O14791); experiment: Inhibition of APOL1 G1 variant in human HEK293-T-REx cells measured by Thallium assay; type: cell-based
Compound,pIC50 [1],pIC50 (Apolipoprotein L1)
O=C([C@H]1C[C@H](c2c(-c3ccc(F)cc3)[nH]c3c(F)cc(F)cc32)C1)N1CCC(O)(O)CC1,6.60,< 6.00
NC(=O)[C@@H]1CCCN1C(=O)[C@H]1C[C@H](c2c(-c3ccc(F)cc3)[nH]c3c(F)cc(F)cc32)C1,< 6.00,< 6.00
O=C([C@H]1C[C@H](c2c(-c3ccc(F)cc3)[nH]c3c(F)cc(F)cc32)C1)N1CCC[C@@H]1CO,> 6.60,9.60
O=C([C@H]1C[C@H](c2c(-c3ccc(F)cc3)[nH]c3c(F)cc(F)cc32)C1)N1C[C@@H]2[C@@H](CO)[C@@H]2C1,< 6.00,< 6.00
CN(CC1(CO)CCOCC1)C(=O)[C@H]1C[C@H](c2c(-c3ccc(F)cc3)[nH]c3c(F)cc(F)cc32)C1,< 6.00,< 6.00
O=C(NC1CC(O)C1)[C@H]1C[C@H](c2c(-c3ccc(F)cc3)[nH]c3c(F)cc(F)cc32)C1 (some centres not stated),6.60,9.60
Cn1ccc(CNC(=O)[C@H]2C[C@H](c3c(-c4ccc(F)cc4)[nH]c4c(F)cc(F)cc43)C2)n1,> 6.60,9.60
CCC(CO)NC(=O)[C@H]1C[C@H](c2c(-c3ccc(F)cc3)[nH]c3c(F)cc(F)cc32)C1 (some centres not stated),6.60,> 6.60
C[C@@H](NC(=O)[C@H]1C[C@H](c2c(-c3ccc(F)cc3)[nH]c3c(F)cc(F)cc32)C1)C(N)=O,< 6.00,9.60
CC(O)CN(C)C(=O)[C@H]1C[C@H](c2c(-c3ccc(F)cc3)[nH]c3c(F)cc(F)cc32)C1 (some centres not stated),6.60,< 6.00
COCc1cc(CNC(=O)[C@H]2C[C@H](c3c(-c4ccc(F)cc4)[nH]c4c(F)cc(F)cc43)C2)n[nH]1,< 6.00,< 6.00
O=C(O)CNC(=O)[C@H]1C[C@H](c2c(-c3ccc(F)cc3)[nH]c3c(F)cc(F)cc32)C1,< 6.00,< 6.00
O=C(NC[C@H](O)CO)[C@H]1C[C@H](c2c(-c3ccc(F)cc3)[nH]c3c(F)cc(F)cc32)C1,6.60,< 6.00
CN(CC1(CO)CC1)C(=O)[C@H]1C[C@H](c2c(-c3ccc(F)cc3)[nH]c3c(F)cc(F)cc32)C1,< 6.00,< 6.00
CC(C)N(CCO)C(=O)[C@H]1C[C@H](c2c(-c3ccc(F)cc3)[nH]c3c(F)cc(F)cc32)C1,6.60,< 6.00
COCC1(NC(=O)[C@H]2C[C@H](c3c(-c4ccc(F)cc4)[nH]c4c(F)cc(F)cc43)C2)CC1,> 6.60,> 6.60
O=C(NC1(CCO)CC1)[C@H]1C[C@H](c2c(-c3ccc(F)cc3)[nH]c3c(F)cc(F)cc32)C1,6.60,9.60
CN(CC(C)(C)O)C(=O)[C@H]1C[C@H](c2c(-c3ccc(F)cc3)[nH]c3c(F)cc(F)cc32)C1,< 6.00,< 6.00
COCC1(CNC(=O)[C@H]2C[C@H](c3c(-c4ccc(F)cc4)[nH]c4c(F)cc(F)cc43)C2)CC1,< 6.00,< 6.00
CN1CCC(NC(=O)[C@H]2C[C@H](c3c(-c4ccc(F)cc4)[nH]c4c(F)cc(F)cc43)C2)C1=O (some centres not stated),6.60,> 6.60
CC(NC(=O)[C@H]1C[C@H](c2c(-c3ccc(F)cc3)[nH]c3c(F)cc(F)cc32)C1)c1ccn(C)n1 (some centres not stated),> 6.60,9.60
CC(C)N1CCN(C(=O)[C@H]2C[C@H](c3c(-c4ccc(F)cc4)[nH]c4c(F)cc(F)cc43)C2)CC1=O,< 6.00,< 6.00
Cn1cc(CNC(=O)[C@H]2C[C@H](c3c(-c4ccc(F)cc4)[nH]c4c(F)cc(F)cc43)C2)cn1,6.60,< 6.00
O=C(N[C@H]1CC[C@@H](CO)O1)[C@H]1C[C@H](c2c(-c3ccc(F)cc3)[nH]c3c(F)cc(F)cc32)C1,< 6.00,< 6.00
O=C1CCC(NC(=O)[C@H]2C[C@H](c3c(-c4ccc(F)cc4)[nH]c4c(F)cc(F)cc43)C2)C(=O)N1 (some centres not stated),6.60,9.60
O=C([C@H]1C[C@H](c2c(-c3ccc(F)cc3)[nH]c3c(F)cc(F)cc32)C1)N1CCC[C@H](O)C1 (mixture of isomers),6.60,< 6.00
